From PMC9669214 (Biochemistry, 2022)

Target: GacI-PP (Streptomyces glaucescens, UniProt B0B0T9)
Assay: LC-Q-TOF-MS of product V1P
Assay type: biochemical
Conditions: V1,7PP 1 mM, Tris-HCl 20 mM pH 7.5, 30 °C

O=P(O)(O)OCC1=CC(OP(=O)(O)O)C(O)C(O)C1O (stereo not shown) [compound 8, V1,7PP]
LC-Q-TOF-MS of product V1P; MESG/PNP initial velocity: The protein was then incubated with V1,7PP and the formation of V1P was confirmed
